Reference: patent US20170087129A1, “COMPOSITIONS AND METHODS FOR THE TREATMENT OF ATHEROSCLEROTIC CARDIOVASCULAR DISEASES WITH PDE4 MODULATORS” (Celgene Corporation, priority 2014, published 2017)

Columns and labels:
THP-1 cells = experiment: Inhibition of foam cell formation in THP-1 cells (Oil Red O staining); format: cell-based; conditions: THP-1 cells + PMA, 50 μg/ml acLDL + 500 U/ml IFN-γ; two doses of 100 nM compound; versus vehicle samples; light microscopy
Method: THP-1 cells in suspension were maintained in RPMI 1640 media (PenStep, 10% FBS, 37° C., 5% CO2). The cells plated at 10^5-10^6 cells/well in 24-well plate (500 uL/well). Cell count was 34 at 1:20 and 1:30 dilution. Then, 100 nM PMA was added to allow for differentiation into macrophages, and the mixture was incubated for 24 hours. To the mixture, was added 500 U/mL IFN-gamma, and the resulting mixture was incubated for another 24 hours.
For vehicles, 50 μg/ml of acLDL and 500 U/ml IFN-γ were added to the cells. For those samples that received treatment by Compound A1, a first dose of 100 nM of Compound A1 was added 15 minutes before the addition of acLDL, and a second dose of 100 nM Compound A1 was added after 24 hours. Then, media was removed, and cells washed three times with PBS and fixed in 10% formalin for 10 minutes. Cells were rinsed in PBS (1 minute) and then with 60% isopropanol (15 seconds). Samples were stained with Oil Red O in darkness for 1 minute at 37° C. Samples were rinsed again in 60% isopropanol, then three times with PBS. Wells were kept hydrated until imaging, and samples were visualized using light microscopy.

[1] = test system: PDE4 enzyme from U937 human monocytic cells; experiment: Inhibition of PDE4 (enzyme assay, [3H]-cAMP); format: biochemical; conditions: purified PDE4 enzyme from U937 human monocytic cells; 1 μM cAMP, 45 min at 30° C.
Method: Phosphodiesterase 4 enzyme was purified from U937 human monocytic cells by gel filtration chromatography, and phosphodiesterase reactions were carried out as previously described. See, e.g., Muller et al., Bioorg. Med. Chem. Lett., 1998, 8(19): 2669-2674. Briefly, reactions were carried out in 96-well deep-well plates in 50 mM Tris HCl pH 7.5, 5 mM MgCl2, 1 μM cyclic adenosine monophosphate (cAMP), plus 10 nM [^3H]-cAMP for 45 min at 30° C. The reactions were terminated by boiling, treated with 1 mg/ml snake venom, and separated using AG-1X8 ion exchange resin (BioRad). Reactions consumed less than 15% of available substrate.

SMILES	formation of foam cells (THP-1 cells)	IC50 [1] [nM]
CCOc1cc([C@H](CS(C)(=O)=O)N2C(=O)c3cccc(NC(C)=O)c3C2=O)ccc1OC [Compound A2, (R)—N-(2-(1-(3-ethoxy-4-methoxyphenyl)-2-(methylsulfonyl)ethyl)-1,3-dioxoisoindolin-4-yl)acetamide]	effective in preventing or inhibiting the formation of foam cells	–
CCOc1cc([C@@H](CS(C)(=O)=O)N2C(=O)c3cccc(NC(C)=O)c3C2=O)ccc1OC [Compound A1, (S)—N-(2-(1-(3-ethoxy-4-methoxyphenyl)-2-(methylsulfonyl)ethyl)-1,3-dioxoisoindolin-4-yl)acetamide]	significantly reduced formation of foam cells	~74
